Entries after “also recorded” stand apart in the source; their conditions may differ.
Experiments:
Solubility in water = type: physicochemical; details: read-out: soluble in water
[1] = molecular target: steroid site on the GABAA receptor-chloride channel complex; experiment: [35S]TBPS binding assay; set-up: species or system Male Sprague-Dawley rats; details: inhibition of [35S]TBPS (2 nM) binding, rat cerebral cortex P2 membranes, 5 µM GABA, 90 minute incubation at 22°C
Procedure: TBPS binding assays were conducted according to the following procedures, which are described in Gee, K.W.; Lawrence, L.J.; and Yamamura, H. I., "Modulation of the Chloride Ionophore by Benzodiazepine Receptor Ligands Influence of Gamma-Aminobutyric Acid and Ligand Efficacy," Molecular Pharmacology, 30:218, 1986. Male Sprague-Dawley rats (200-250g) were anesthetized with carbon dioxide and decapitated. The rats' brains were removed and the cerebral cortices were dissected and homogenized in 10 volumes of 0.32 M sucrose. Tissue was centrifuged at 1000 x g for 10 minutes and the resultant supernatant was centrifuged at 9,000 g for 20 minutes. The resultant pellet was resuspended in 10 volumes of 200 mM NaCl/50 mM Na-K phosphate pH 7.4 buffer (binding buffer) and then centrifuged at 9,000 x g for 10 minutes. This washing procedure was repeated twice and the final P2 pellet was resuspended in the binding buffer. For the binding assay, [^35S] TBPS (2 nM) was co-incubated in binding buffer with P2 membranes and 5 µM GABA and either 1) no additions to measure total binding; 2) 2 µM unlabeled TPBS to measure nonspecific binding; 3) the neurosteroid ranging in concentration from 1 Nm to 10µM. Following a 90 minute incubation at 22°C, the suspension was filtered and the bound radioactivity was determined by liquid scintillation counting. […] A lower IC50 indicates higher affinity for the steroid site on the GABAA receptor-chloride channel complex. Table 1 gives the IC50 values of representative steroids used in the present invention.

rats = experiment: Rat sleep-wake bioassay (EEG, EMG, locomotor activity, body temperature); type: in vivo, Wistar rats; details: for reduction in locomotor activity (LMA) over time: compared to Triazolam and Zolpidem
Procedure: Rat preparation, monitoring, and analysis of the data was conducted as described below. […] Body temperature and locomotor activity were monitored via a miniature transmitter (Minimitter) surgically placed in the abdomen. The cranial implant consisted of stainless steel screws (2 frontal [+3.9 AP form bregma, ±2.0 ML] and two occipital [-6.4 AP, ±5.5 ML]) for EEG recording. Two Teflon-coated steel wires were positioned under the nuchal trapezoid muscles for EMG recording. All leads were soldered to a miniature connector prior to surgery, and chemically sterilized in Glutarex (3M Co.). The implant assembly was affixed to the skull with dental acrylic. A minimum of three weeks was allowed for recovery.
Each rat was permanently housed in its own individual recording cage located within separate, ventilated compartments of custom-designed stainless steel cabinets. Each Nalgene microisolator cage, which is an individual recording cage, was enhanced with a filter-top riser and swivel-commutator. Food and water were available ad libitum. […] Animals were undisturbed for three days both before and after treatments. In practice, animals were undisturbed during the weekend. Treatments were administered on Monday evening or Tuesday morning, and the animals were again left undisturbed until Friday, when cages were cleaned and the data copied off the computers.
The computers monitored the EEG, EMG, body temperature and non-specific locomotor activity (LMA) via telemetry, and drinking activity from 48 rats simultaneously. The computer classified the arousal state every 10 seconds using pattern-matching algorithms which included behavior-dependent contextual rules. Drinking and LMA were recorded every 10 seconds, while body temperature was recorded every minute.
Therefore, time of treatment is important. By administering the drug at CT-18, which is the peak of the rat's activity dominated period, the natural tendency for the rats to sleep at lights on ([…] clock time or Circadian Time, CT-0) cannot mask the hypnotic activity of the drug. By administering the drug at CT-5 when the propensity for REM sleep is greatest, the drug's effect on REM sleep can be measured more accurately. The activity dominated period begins when the lights are turned off at CT-12 or 15:00 clock time on the Figures.
The drugs and controls were injected intraperitoneally or administered orally in a volume of 1 ml/kg or […], respectively, under dim red illumination for the CT-18 studies or under regular light for the CT-5 studies.
A matched control group, N=20, was selected from a pool of 60 available control candidates. These matched control groups were constructed as follows.

Row | Structure (SMILES) | solubility (Solubility in water) | IC50 [1] | body temperature (rats) | duration of uninterrupted NREM sleep (sleep bout length) (rats) | rebound insomnia / rebound wakefulness / rebound effects (rats) | reduction in locomotor activity (LMA) over time (rats; 10 mg/kg) | reduction in locomotor activity (LMA) over time (rats; 30 mg/kg) | rebound reduction of NREM sleep (rats; CT-5 or CT-18, any dose) | NREM sleep (rats; administered at CT-5 or CT-18, listed as Pregnanolone) | NREM sleep (rats; administered at CT-5 or CT-18, listed as pregnanolone) | REM sleep (rats; listed as Pregnanolone) | REM sleep (rats; listed as pregnanolone)
1 | C#C[C@@]1(O)CC[C@@]2(C)[C@H](CC[C@@H]3[C@@H]2CC[C@]2(C)[C@@H](C(=O)COC(=O)CCC(=O)O)CC[C@@H]32)C1 [Sodium 3α,21-dihydroxy-3β-ethynyl-5β-pregnan-20-one 21-hemisuccinate] | > 20 mg/mL | – | – | – | – | – | – | – | – | – | – | –
2 | CC(=O)[C@H]1CC[C@H]2[C@@H]3CC[C@@H]4C[C@H](O)CC[C@]4(C)[C@H]3CC[C@]12C [3α-hydroxy-5β-pregnan-20-one] | – | 25 nM | tends not to affect body temperature | strong increase | not producing rebound wakefulness | no reduction | moderately smaller reduction | no rebound reduction of NREM sleep | potent at both CT-5 and CT-18; also recorded: potent NREM-promoting effect | effective in promoting NREM sleep | slight REM-interference | lack an inhibitory effect on REM sleep
